From patent publication US20250082602A1, “OPHTHALMIC COMPOSITION CONTAINING RECOFLAVONE FOR THE TREATMENT OF DRY EYE DISEASE” (GL PHARMTECH CORP., priority 2021, published 2025)
Like-named read-outs stand apart in the source and are kept apart here.

Assays:
[1] = tested on: human keratoconjunctival epithelial cells; conditions: cited from earlier work
rabbit eyes = experiment: Drug distribution in eye tissues after eye drop administration to rabbit eyes; assay type: in vivo; conditions: 3% eye drop administered to rabbit eyes (data not shown)
Text: It has a property with low solubility at low pH. As the pH increases, it is ionized and its solubility increases.

[2] = cited from earlier work
[3] = Cell permeability of dissolved recoflavone; assay type: in vitro ADME; conditions: dissolved state, high degree of ionization
Solubility in water = assay type: physicochemical; conditions: low solubility at low pH, increases with pH

- Cell permeability [3]: poor cell permeability
- Solubility in water (Solubility in water): practically insoluble in water
SMILES: COc1ccc(-c2cc(=O)c3c(OC)cc(OCC(=O)O)cc3o2)cc1OC [recoflavone, 2-((2-(3,4-dimethoxyphenyl)-5-methoxy-4-oxo-4H-chromen-7-yl)oxy) acetic acid]
- Thickness of the mucin layer ([1]; 100 μM solution of the active ingredient): significantly increased
- Mucin proteins by Western blot analysis ([1]; Western blot): MUC5AC only had a tendency to increase
- Mucin expression MUC1, MUC4, MUC16 and MUC5AC by real-time PCR ([1]; real-time PCR): tendency to increase significantly for four hours and then decreased rapidly
- Drug distribution in each tissue of eye with time (rabbit eyes): rarely distributed in the tissues located inside the eye and mainly distributed in the surrounding tissues outside of the eye
- Hygroscopicity ([2]; form of a hydrate): stable without hygroscopicity
- Hygroscopicity ([2]; form of an anhydride): has hygroscopicity
